Consider 15 compounds from ChEMBL document CHEMBL1255213, “Bottromycin derivatives: efficient chemical modifications of the ester moiety and evaluation of anti-MRSA and anti-VRE activities” (2010).

Converted amounts (≈) assume the structure as drawn.

Common to all, as to type: functional
Assay [1] has as its system Staphylococcus aureus. The experiment in a line: Antimicrobial activity against methicillin-resistant Staphylococcus aureus 92-1191 by standard serial-dilution technique.
For assay [2], the system named is Staphylococcus aureus. In words: Antimicrobial activity against methicillin-resistant Staphylococcus aureus HH1 by standard serial-dilution technique.
The subject of assay [3] is Enterococcus faecium. The experiment in a line: Antimicrobial activity against Enterococcus faecium NCTC 12201 by standard serial-dilution technique.
In assay [4] the test system is Staphylococcus aureus. In words: Antimicrobial activity against Staphylococcus aureus Smith by standard serial-dilution technique.
In assay [5] the test system is Staphylococcus aureus. The experiment in a line: Antimicrobial activity against Staphylococcus aureus FDA209P by standard serial-dilution technique.
The subject of assay [6] is Enterococcus faecium. In words: Antimicrobial activity against Enterococcus faecium NCTC 12203 by standard serial-dilution technique.
Assay [7] concerns Staphylococcus aureus. The experiment in a line: Antimicrobial activity against methicillin-resistant Staphylococcus aureus assessed as rate of residual activity. Further details: concentration or dose not given beside the values.

Consider `CC(C)[C@@H]1NC(=O)[C@@H]2[C@H](C)CCN2C(=O)CN/C(=N\[C@H](C(=O)N[C@H](C(=O)N[C@H](CC(=O)N2CCOCC2)c2nccs2)[C@@H](C)c2ccccc2)C(C)(C)C)[C@H](C(C)(C)C)NC1=O`, for which the minimum inhibitory concentration (MIC) was determined as 32 µg/mL (≈ 36.4 µM) in the assay with Staphylococcus aureus [1]; 16 µg/mL (≈ 18.2 µM) in the assay on Staphylococcus aureus [2]; 16 µg/mL (≈ 18.2 µM) with Enterococcus faecium [3]; 8 µg/mL (≈ 9.11 µM) against Staphylococcus aureus [4]; 16 µg/mL (≈ 18.2 µM) in the assay on Staphylococcus aureus [5]; 4 µg/mL (≈ 4.56 µM) in the assay on Enterococcus faecium [6]. Besides, the Activity in the assay with Staphylococcus aureus [7] is given as 100%.
For `COC(=O)C[C@@H](NC(=O)[C@@H](NC(=O)[C@@H](/N=C1\NCC(=O)N2CC[C@@H](C)[C@H]2C(=O)N[C@@H](C(C)C)C(=O)N[C@H]1C(C)(C)C)C(C)(C)C)[C@@H](C)c1ccccc1)c1nccs1`, the MIC was found to be 2 µg/mL (≈ 2.43 µM) against Staphylococcus aureus [1]; 1 µg/mL (≈ 1.21 µM) in the assay on Staphylococcus aureus [2]; 1 µg/mL (≈ 1.21 µM) against Enterococcus faecium [3]; 1 µg/mL (≈ 1.21 µM) against Staphylococcus aureus [4]; 1 µg/mL (≈ 1.21 µM) in the assay with Staphylococcus aureus [5]; 0.5 µg/mL (≈ 0.607 µM) against Enterococcus faecium [6]. Further, the Activity in the assay with Staphylococcus aureus [7] is 0%.
In the case of `CC(C)[C@@H]1NC(=O)[C@@H]2[C@H](C)CCN2C(=O)CN/C(=N\[C@H](C(=O)N[C@H](C(=O)N[C@H](CC(=O)O)c2nccs2)[C@@H](C)c2ccccc2)C(C)(C)C)[C@H](C(C)(C)C)NC1=O`, the minimum inhibitory concentration (MIC) against Staphylococcus aureus [1] was 128 µg/mL (≈ 158 µM); against Staphylococcus aureus [2], 64 µg/mL (≈ 79.1 µM); against Enterococcus faecium [3] it was 128 µg/mL (≈ 158 µM); against Staphylococcus aureus [4] it was 64 µg/mL (≈ 79.1 µM); in the assay with Staphylococcus aureus [5], 64 µg/mL (≈ 79.1 µM); against Enterococcus faecium [6] it was 32 µg/mL (≈ 39.6 µM).
Take `CC(C)[C@@H]1NC(=O)[C@@H]2[C@H](C)CCN2C(=O)CN/C(=N\[C@H](C(=O)N[C@H](C(=O)N[C@H](CC(=O)NN)c2nccs2)[C@@H](C)c2ccccc2)C(C)(C)C)[C@H](C(C)(C)C)NC1=O`: the MIC was 32 µg/mL (≈ 38.9 µM) in the assay on Staphylococcus aureus [1]; 16 µg/mL (≈ 19.4 µM) against Staphylococcus aureus [2]; 8 µg/mL (≈ 9.72 µM) with Enterococcus faecium [3]; 16 µg/mL (≈ 19.4 µM) against Staphylococcus aureus [4]; 16 µg/mL (≈ 19.4 µM) in the assay with Staphylococcus aureus [5]; 4 µg/mL (≈ 4.86 µM) against Enterococcus faecium [6]. Besides, the Activity in the assay on Staphylococcus aureus [7] worked out at 86%.
On to `CC(C)[C@@H]1NC(=O)[C@@H]2[C@H](C)CCN2C(=O)CN/C(=N\[C@H](C(=O)N[C@H](C(=O)N[C@H](CC(=O)NCc2ccccc2)c2nccs2)[C@@H](C)c2ccccc2)C(C)(C)C)[C@H](C(C)(C)C)NC1=O`, for which the MIC against Staphylococcus aureus [1] was 8 µg/mL (≈ 8.91 µM); against Staphylococcus aureus [2] it was 8 µg/mL (≈ 8.91 µM); with Enterococcus faecium [3] it was 8 µg/mL (≈ 8.91 µM); against Staphylococcus aureus [4], 8 µg/mL (≈ 8.91 µM); in the assay on Staphylococcus aureus [5] it was 8 µg/mL (≈ 8.91 µM); against Enterococcus faecium [6], 2 µg/mL (≈ 2.23 µM). Moreover, in the assay on Staphylococcus aureus [7], the Activity came out at 71%.
As for `C#CCNC(=O)C[C@@H](NC(=O)[C@@H](NC(=O)[C@@H](/N=C1\NCC(=O)N2CC[C@@H](C)[C@H]2C(=O)N[C@@H](C(C)C)C(=O)N[C@H]1C(C)(C)C)C(C)(C)C)[C@@H](C)c1ccccc1)c1nccs1`, the MIC was 16 µg/mL (≈ 18.9 µM) in the assay with Staphylococcus aureus [1]; 8 µg/mL (≈ 9.46 µM) with Staphylococcus aureus [2]; 4 µg/mL (≈ 4.73 µM) with Enterococcus faecium [3]; 8 µg/mL (≈ 9.46 µM) in the assay with Staphylococcus aureus [4]; 8 µg/mL (≈ 9.46 µM) with Staphylococcus aureus [5]; 2 µg/mL (≈ 2.36 µM) in the assay on Enterococcus faecium [6]. The Activity in the assay on Staphylococcus aureus [7] is recorded as 100%.
For the compound `CC(C)[C@@H]1NC(=O)[C@@H]2[C@H](C)CCN2C(=O)CN/C(=N\[C@H](C(=O)N[C@H](C(=O)N[C@H](CC(=O)N2CCSC2)c2nccs2)[C@@H](C)c2ccccc2)C(C)(C)C)[C@H](C(C)(C)C)NC1=O`, the MIC against Staphylococcus aureus [1] came out at 8 µg/mL (≈ 9.09 µM); with Staphylococcus aureus [2] it was 8 µg/mL (≈ 9.09 µM); with Enterococcus faecium [3], 8 µg/mL (≈ 9.09 µM); in the assay with Staphylococcus aureus [4], 4 µg/mL (≈ 4.54 µM); against Staphylococcus aureus [5] it was 4 µg/mL (≈ 4.54 µM); against Enterococcus faecium [6] it was 2 µg/mL (≈ 2.27 µM). Also, the Activity with Staphylococcus aureus [7] was 100%.
As to `CC(C)[C@@H]1NC(=O)[C@@H]2[C@H](C)CCN2C(=O)CN/C(=N\[C@H](C(=O)N[C@H](C(=O)N[C@H](CC(=O)N2CCSCC2)c2nccs2)[C@@H](C)c2ccccc2)C(C)(C)C)[C@H](C(C)(C)C)NC1=O`, the MIC against Staphylococcus aureus [1] was found to be 8 µg/mL (≈ 8.95 µM); in the assay on Staphylococcus aureus [2], 8 µg/mL (≈ 8.95 µM); with Enterococcus faecium [3], 4 µg/mL (≈ 4.47 µM); with Staphylococcus aureus [4], 4 µg/mL (≈ 4.47 µM); against Staphylococcus aureus [5], 8 µg/mL (≈ 8.95 µM); in the assay with Enterococcus faecium [6], 4 µg/mL (≈ 4.47 µM). Also, in the assay with Staphylococcus aureus [7], the Activity is on record as 100%.
Regarding `CC(C)[C@@H]1NC(=O)[C@@H]2[C@H](C)CCN2C(=O)CN/C(=N\[C@H](C(=O)N[C@H](C(=O)N[C@H](CC(=O)N2CCN(C(=O)OC(C)(C)C)CC2)c2nccs2)[C@@H](C)c2ccccc2)C(C)(C)C)[C@H](C(C)(C)C)NC1=O`, the MIC came to 8 µg/mL (≈ 8.19 µM) in the assay with Staphylococcus aureus [1]; 8 µg/mL (≈ 8.19 µM) against Staphylococcus aureus [2]; 8 µg/mL (≈ 8.19 µM) against Enterococcus faecium [3]; 4 µg/mL (≈ 4.09 µM) in the assay on Staphylococcus aureus [4]; 8 µg/mL (≈ 8.19 µM) against Staphylococcus aureus [5]; 4 µg/mL (≈ 4.09 µM) with Enterococcus faecium [6]. The Activity in the assay with Staphylococcus aureus [7] was determined as 42%.
With `CC(C)[C@@H]1NC(=O)[C@@H]2[C@H](C)CCN2C(=O)CN/C(=N\[C@H](C(=O)N[C@H](C(=O)N[C@H](CC(=O)N2CCNCC2)c2nccs2)[C@@H](C)c2ccccc2)C(C)(C)C)[C@H](C(C)(C)C)NC1=O`, the MIC was found to be 128 µg/mL (≈ 146 µM) against Staphylococcus aureus [1]; 64 µg/mL (≈ 73 µM) against Staphylococcus aureus [2]; 32 µg/mL (≈ 36.5 µM) in the assay on Enterococcus faecium [3]; 32 µg/mL (≈ 36.5 µM) against Staphylococcus aureus [4]; 64 µg/mL (≈ 73 µM) against Staphylococcus aureus [5]; 32 µg/mL (≈ 36.5 µM) against Enterococcus faecium [6].
For `C#CCN1CCN(C(=O)C[C@@H](NC(=O)[C@@H](NC(=O)[C@@H](/N=C2\NCC(=O)N3CC[C@@H](C)[C@H]3C(=O)N[C@@H](C(C)C)C(=O)N[C@H]2C(C)(C)C)C(C)(C)C)[C@@H](C)c2ccccc2)c2nccs2)CC1`, the MIC in the assay with Staphylococcus aureus [1] amounted to 32 µg/mL (≈ 35 µM); against Staphylococcus aureus [2] it was 16 µg/mL (≈ 17.5 µM); in the assay with Enterococcus faecium [3] it was 16 µg/mL (≈ 17.5 µM); against Staphylococcus aureus [4] it was 16 µg/mL (≈ 17.5 µM); in the assay with Staphylococcus aureus [5] it was 16 µg/mL (≈ 17.5 µM); against Enterococcus faecium [6], 16 µg/mL (≈ 17.5 µM). Moreover, the Activity with Staphylococcus aureus [7] is on record as 67%.
As to `CC(C)[C@@H]1NC(=O)[C@@H]2[C@H](C)CCN2C(=O)CN/C(=N\[C@H](C(=O)N[C@H](C(=O)N[C@H](CC(=O)N2CCN(Cc3ccccc3)CC2)c2nccs2)[C@@H](C)c2ccccc2)C(C)(C)C)[C@H](C(C)(C)C)NC1=O`, the MIC in the assay with Staphylococcus aureus [1], against Staphylococcus aureus [2], against Enterococcus faecium [3], in the assay with Staphylococcus aureus [4], against Staphylococcus aureus [5] and in the assay on Enterococcus faecium [6] was 4 µg/mL (≈ 4.14 µM) in each case. In the assay on Staphylococcus aureus [7], the Activity turned out to be 84%.
As to `CC(C)[C@@H]1NC(=O)[C@@H]2[C@H](C)CCN2C(=O)CN/C(=N\[C@H](C(=O)N[C@H](C(=O)N[C@H](CNC(=O)N2CCSC2)c2nccs2)[C@@H](C)c2ccccc2)C(C)(C)C)[C@H](C(C)(C)C)NC1=O`, the MIC worked out at 4 µg/mL (≈ 4.47 µM) in the assay on Staphylococcus aureus [1]; 4 µg/mL (≈ 4.47 µM) against Staphylococcus aureus [2]; 4 µg/mL (≈ 4.47 µM) in the assay with Enterococcus faecium [3]; 4 µg/mL (≈ 4.47 µM) against Staphylococcus aureus [4]; 4 µg/mL (≈ 4.47 µM) against Staphylococcus aureus [5]; 2 µg/mL (≈ 2.23 µM) in the assay with Enterococcus faecium [6]. The Activity in the assay on Staphylococcus aureus [7] was 100%.
As to `CC(=O)NC[C@H]1CN(c2ccc(N3CCOCC3)c(F)c2)C(=O)O1` [LINEZOLID], the MIC with Enterococcus faecium [3] and in the assay with Enterococcus faecium [6] was 2 µg/mL (≈ 5.93 µM) each time.
On to `CN[C@H](CC(C)C)C(=O)N[C@H]1C(=O)N[C@@H](CC(N)=O)C(=O)N[C@H]2C(=O)N[C@H]3C(=O)N[C@H](C(=O)N[C@H](C(=O)O)c4cc(O)cc(O)c4-c4cc3ccc4O)[C@H](O)c3ccc(c(Cl)c3)Oc3cc2cc(c3O[C@@H]2O[C@H](CO)[C@@H](O)[C@H](O)[C@H]2O[C@H]2C[C@](C)(N)[C@H](O)[C@H](C)O2)Oc2ccc(cc2Cl)[C@H]1O` [VANCOMYCIN], for which the MIC in the assay on Enterococcus faecium [3] and with Enterococcus faecium [6] was over 128 µg/mL in each case.

As usually defined, the MIC is the smallest concentration in the dilution series that meets the test's criterion for growth inhibition.
